tested on: IL-2 production; assay: Inhibition of IL-2 production in PHA-activated Jurkat cells (ELISA); assay type: cell-based; details: Homo sapiens, PHA 2.5 μg/mL, 20 hours, value bins
Protocol: Jurkat cells were placed in a 96 well plate (0.5 million cells per well in 1% FBS medium) then test compounds of this invention were added at different concentrations. After 10 minutes, the cells were activated with PHA (final concentration 2.5 μg/mL) and incubated for 20 hours at 37° C. under CO2. The final volume was 200 μL. Following incubation, the cells were centrifuged and the supernatants collected and stored at −70° C. prior to assaying for IL-2 production. A commercial ELISA kit (IL-2 Eli-pair, Diaclone Research, Besancon, France) was used to detect production of IL-2, from which dose response curves were obtained. The IC50 value was calculated as the concentration at which 50% of maximum IL-2 production after stimulation was inhibited versus a non-stimulation control.

For O=C(Nc1ccc(-c2ccccc2C(F)(F)F)cc1)c1ccncc1F [Compound 1, 3-Fluoro-N-(2′-trifluoromethyl-biphenyl-4-yl)-isonicotinamide], which IC50 is on record?
Its IC50 is 100 to 500 nM.

How did the IC50 turn out when Cc1ccccc1-c1ccc(NC(=O)c2ccncc2F)cc1 [Compound 2, 3-Fluoro-N-(2′-methyl-biphenyl-4-yl)-isonicotinamide] was run?
The IC50 was 100 to 500 nM.

How did the IC50 turn out when O=C(Nc1ccc(-c2ccccc2C(F)(F)F)cc1)c1ccncc1 [Compound 8, N-(2′-Trifluoromethyl-biphenyl-4-yl)-isonicotinamide] was run?
Its IC50 is 100 to 500 nM.

With O=C(Nc1ccc(-c2ccccc2C(F)(F)F)cc1)c1cnccc1C(F)(F)F [Compound 12, 4-Trifluoromethyl-N-(2′-trifluoromethyl-biphenyl-4-yl)-nicotinamide] as the molecule, how does the IC50 read?
The IC50 was 100 to 500 nM.

How did the IC50 turn out when O=C(Nc1ccc(-c2ccccc2C(F)(F)F)cc1)c1cccc(F)c1F [Compound 15, 2,3-Difluoro-N-(2′-trifluoromethyl-biphenyl-4-yl)-benzamide] was run?
Its IC50 is 100 to 500 nM.

For O=C(Nc1ccc(-c2ccccc2C(F)(F)F)cc1)c1cc(F)ccc1F [Compound 16, 2,5-Difluoro-N-(2′-trifluoromethyl-biphenyl-4-yl)-benzamide], which IC50 is on record?
Its IC50 is 100 to 500 nM.

With O=C(Nc1ccc(-c2cc(C(F)(F)F)ccc2C(F)(F)F)cc1)c1cccc(F)c1F [Compound 18, N-(2′,5′-Bis-trifluoromethyl-biphenyl-4-yl)-2,3-difluoro-benzamide] as the molecule, how does the IC50 read?
Its IC50 is under 100 nM.

For O=C(Nc1ccc(-c2cc(C(F)(F)F)ccc2F)cc1)c1cccc(F)c1F [Compound 19, 2,3-Difluoro-N-(2′-fluoro-5′-trifluoromethyl-biphenyl-4-yl)-benzamide], which IC50 is on record?
Its IC50 is 100 to 500 nM.

For O=C(Nc1ccc(-c2ccc(F)cc2C(F)(F)F)cc1)c1cccc(F)c1F [Compound 20, 2,3-Difluoro-N-(4′-fluoro-2′-trifluoromethyl-biphenyl-4-yl)-benzamide], which IC50 is on record?
The IC50 was under 100 nM.

For O=C(Nc1ccc(-c2c(C(F)(F)F)cc3ccccn23)cc1)c1cccc(F)c1F [Compound 21, 2,3-Difluoro-N-[4-(2-trifluoromethyl-indolizin-3-yl)-phenyl]-benzamide], which IC50 is on record?
Its IC50 is under 100 nM.

For O=C(Nc1ccc(-c2c(F)cccc2C(F)(F)F)cc1)c1cccc(F)c1F [Compound 22, 2,3-Difluoro-N-(2′-fluoro-6′-trifluoromethyl-biphenyl-4-yl)-benzamide], which IC50 is on record?
The IC50 was 100 to 500 nM.

Which IC50 does the source give for Cc1nnsc1C(=O)Nc1ccc(-c2cc(C(F)(F)F)ccc2Cl)cc1 [Compound 27, 4-Methyl-[1,2,3]thiadiazole-5-carboxylic acid (2′-chloro-5′-trifluoromethyl-biphenyl-4-yl)-amide] here?
Its IC50 is under 100 nM.

With O=C(Nc1ccc(-c2cc(C(F)(F)F)ccc2C(F)(F)F)cc1)c1cc(F)ccc1F [Compound 28, N-(2′,5′-Bis-trifluoromethyl-biphenyl-4-yl)-2,5-difluoro-benzamide] as the molecule, how does the IC50 read?
The IC50 was under 100 nM.

O=C(Nc1ccc(-n2c(C(F)(F)F)nnc2C(F)(F)F)cc1)c1cccc(F)c1F [Compound 32, N-[4-(3,5-Bis-trifluoromethyl-[1,2,4]triazol-4-yl)-phenyl]-2,3-difluoro-benzamide] was tested. Which IC50 did it give?
Its IC50 is 100 to 500 nM.

Which IC50 does the source give for Cc1ccsc1C(=O)Nc1ccc(-n2c(C(F)(F)F)nnc2C(F)(F)F)cc1 [Compound 34, 3-Methyl-thiophene-2-carboxylic acid-(4-(3,5-bis-trifluoromethyl-[1,2,4]triazol-4-yl)-phenyl)-amide] here?
Its IC50 is 100 to 500 nM.

How did the IC50 turn out when N#Cc1cc(C(F)(F)F)cnc1-c1ccc(NC(=O)c2cccc(F)c2F)cc1 [Compound 37, N-[4-(3-cyano-5-trifluoromethyl-pyrid-2-yl)-phenyl]-2,3-difluoro-benzamide] was run?
Its IC50 is 100 to 500 nM.

COc1ccccc1C(=O)Nc1ccc(-c2cc(C(F)(F)F)ccc2C(F)(F)F)cc1 [Compound 38, N-(2′,5′-bis-trifluoromethyl-biphenyl-4-yl)-2-methoxy-benzamide] was tested. Which IC50 did it give?
The IC50 was 100 to 500 nM.

How did the IC50 turn out when Cc1cc(C(=O)Nc2ccc(-c3cc(C(F)(F)F)ccc3C(F)(F)F)cc2)n(C)n1 [Compound 40, 1,3-Dimethyl-1H-pyrazol-5-carboxylic acid (2′,5′-bis-trifluoromethyl-biphenyl-4-yl)-amide] was run?
The IC50 was 100 to 500 nM.

O=C(Nc1ccc(-c2cc(C(F)(F)F)ccc2C(F)(F)F)cc1)c1csnn1 [Compound 41, [1,2,3]-Thiadiazole-4-carboxylic acid (2′,5′-bis-trifluoromethyl-biphenyl-4-yl)-amide] was tested. Which IC50 did it give?
Its IC50 is 100 to 500 nM.

O=C(Nc1ccc(-c2cc(C(F)(F)F)ccc2C(F)(F)F)cc1)c1ccno1 [Compound 42, Isoxazole-5-carboxylic acid (2′,5′-bis-trifluoromethyl-biphenyl-4-yl)-amide] was tested. Which IC50 did it give?
The IC50 was 100 to 500 nM.

For Cc1noc(C)c1C(=O)Nc1ccc(-c2cc(C(F)(F)F)ccc2C(F)(F)F)cc1 [Compound 43, 3,5-dimethylisoxazole-4-carboxylic acid (2′,5′-bis-trifluoromethyl-biphenyl-4-yl)-amide], which IC50 is on record?
The IC50 was under 100 nM.

COc1ccc(Cl)cc1-c1ccc(NC(=O)c2cccc(F)c2F)cc1 [Compound 44, N-(2′-methoxy-5′-chloro-biphenyl-4-yl)-2,3-difluoro-benzamide] was tested. Which IC50 did it give?
The IC50 was under 100 nM.

Which IC50 does the source give for Cc1ccccc1C(=O)Nc1ccc(-c2cc(C(F)(F)F)ccc2C(F)(F)F)cc1 [Compound 45] here?
The IC50 was under 100 nM.

For Cc1ccc(C)c(-c2ccc(NC(=O)c3cccc(F)c3F)cc2)c1 [Compound 47, N-(2′,5′-dimethyl-biphenyl-4-yl)-2,3-difluorobenzamide], which IC50 is on record?
The IC50 was under 100 nM.

How did the IC50 turn out when COc1ccc(C(C)=O)cc1-c1ccc(NC(=O)c2cccc(F)c2F)cc1 [Compound 50, N-(2′-methoxy-5′-acetyl-biphenyl-4-yl)-2,3-difluorobenzamide] was run?
The IC50 was under 100 nM.

For Cc1oncc1C(=O)Nc1ccc(-c2cc(C(F)(F)F)ccc2C(F)(F)F)cc1 [Compound 51, 5-methylisoxazole-4-carboxylic acid (2′,5′-bis-trifluoromethyl-biphenyl-4-yl)-amide], which IC50 is on record?
Its IC50 is 100 to 500 nM.

With Cc1cc(C)c(-c2ccc(NC(=O)c3cccc(F)c3F)cc2)cc1C [Compound 52, N-(2′,4′,5′-trimethyl-biphenyl-4-yl)-2,3-difluorobenzamide] as the molecule, how does the IC50 read?
The IC50 was under 100 nM.

How did the IC50 turn out when Cc1cccc(C(=O)Nc2ccc(-c3cc(C(F)(F)F)ccc3C(F)(F)F)cc2)c1C [Compound 53, N-(2′,5′-bis-trifluoromethyl-biphenyl-4-yl)-2,3-dimethylbenzamide] was run?
The IC50 was under 100 nM.

For Cc1c(Cl)cccc1C(=O)Nc1ccc(-c2cc(C(F)(F)F)ccc2C(F)(F)F)cc1 [Compound 54, N-(2′,5′-bis-trifluoromethyl-biphenyl-4-yl)-2-methyl-3-chlorobenzamide], which IC50 is on record?
The IC50 was under 100 nM.

same assay, conditions: Homo sapiens, PHA, bin 500 nM-1 μM

For O=C(Nc1ccc(-c2cccc(C(F)(F)F)c2)cc1)c1ccncc1F [Compound 3, 3-Fluoro-N-(3′-trifluoromethyl-biphenyl-4-yl)-isonicotinamide], which IC50 is on record?
Its IC50 is 500 to 1000 nM.

O=C(Nc1ccc(-c2ccccc2C(F)(F)F)c(C(F)(F)F)c1)c1cccc(F)c1F [Compound 4, N-(2,2′-Bis-trifluoromethyl-biphenyl-4-yl)-2,3-difluoro-benzamide] was tested. Which IC50 did it give?
Its IC50 is 500 to 1000 nM.

O=C(Nc1ccc(-c2ccccc2C(F)(F)F)cc1)c1cccnc1 [Compound 7, N-(2′-Trifluoromethyl-biphenyl-4-yl)-nicotinamide] was tested. Which IC50 did it give?
The IC50 was 500 to 1000 nM.

For O=C(Nc1ccc(-n2c(-c3cccs3)nnc2C(F)(F)F)cc1)c1cccc(F)c1F [Compound 35], which IC50 is on record?
The IC50 was 500 to 1000 nM.

Cc1cc(C(=O)Nc2ccc(-c3cc(C(F)(F)F)ccc3C(F)(F)F)cc2)no1 [Compound 39, 5-Methyl-isoxazol-3-carboxylic acid (2′,5′-bis-trifluoromethyl-biphenyl-4-yl)-amide] was tested. Which IC50 did it give?
Its IC50 is 500 to 1000 nM.

How did the IC50 turn out when O=C(Nc1ccc(-c2cc(C(F)(F)F)ccc2C(F)(F)F)cc1)c1ccccc1O [Compound 49, N-(2′,5′-bis-trifluoromethyl-biphenyl-4-yl)-2-hydroxybenzamide] was run?
Its IC50 is 500 to 1000 nM.

same assay, conditions: Homo sapiens, PHA, bin >1 μM

With CN(C)C(=O)c1ccccc1-c1ccc(NC(=O)c2cccc(F)c2F)cc1 [Compound 6, 4′-(2,3-Difluoro-benzoylamino)-biphenyl-2-carboxylic acid dimethylamide] as the molecule, how does the IC50 read?
The IC50 was over 1000 nM.

With O=C(Nc1ccc(-c2ccccc2C(F)(F)F)cc1)c1cccs1 [Compound 9, Thiophene-2-carboxylic acid (2′-trifluoromethyl-biphenyl-4-yl)-amide] as the molecule, how does the IC50 read?
Its IC50 is over 1000 nM.

For O=C(Nc1ccc(-c2ccccc2C(F)(F)F)cc1)c1ccc(F)cc1 [Compound 10, 4-Fluoro-N-(2′-trifluoromethyl-biphenyl-4-yl)-benzamide], which IC50 is on record?
The IC50 was over 1000 nM.

Cc1nc(C)c(C(=O)Nc2ccc(-c3ccccc3C(F)(F)F)cc2)s1 [Compound 11, 2,4-Dimethyl-thiazole-5-carboxylic acid (2′-trifluoromethyl-biphenyl-4-yl)-amide] was tested. Which IC50 did it give?
The IC50 was over 1000 nM.

How did the IC50 turn out when Cc1nc(C(=O)Nc2ccc(-c3ccccc3C(F)(F)F)cc2)c(C(F)(F)F)o1 [Compound 13, 2-Methyl-5-trifluoromethyl-oxazole-4-carboxylic acid (2′-trifluoromethyl-biphenyl-4-yl)-amide] was run?
The IC50 was over 1000 nM.

How did the IC50 turn out when CCn1nc(C)cc1C(=O)Nc1ccc(-c2ccccc2C(F)(F)F)cc1 [Compound 14, 2-Ethyl-5-methyl-2H-pyrazole-3-carboxylic acid (2′-trifluoromethyl-biphenyl-4-yl)-amide] was run?
Its IC50 is over 1000 nM.

How did the IC50 turn out when O=C(Nc1ccc(-c2ccccc2C(F)(F)F)cc1F)c1cccc(F)c1F [Compound 17, 2,3-Difluoro-N-(3-fluoro-2′-trifluoromethyl-biphenyl-4-yl)-benzamide] was run?
Its IC50 is over 1000 nM.

With O=C(Nc1ccc(-c2ccccc2C(F)(F)F)cc1)c1ccccn1 [Compound 25, Pyridine-2-carboxylic acid (2′-trifluoromethyl-biphenyl-4-yl)-amide] as the molecule, how does the IC50 read?
The IC50 was over 1000 nM.

With O=C(Nc1ccc(-c2ccccc2C(F)(F)F)cc1)c1cnccn1 [Compound 26, Pyrazine-2-carboxylic acid (2′-trifluoromethyl-biphenyl-4-yl)-amide] as the molecule, how does the IC50 read?
Its IC50 is over 1000 nM.

Reference: patent US20050148633A1 (priority 2003, published 2005)
